According to ChEMBL document CHEMBL1148802, “Discovery and synthesis of HIV integrase inhibitors: development of potent and orally bioavailable N-methyl pyrimidones” (J Med Chem, 2007):

How the values were obtained:
Homo sapiens = organism: Homo sapiens; test: Protein binding in human plasma; settings: read-out: PPB (converted)
[1] = Protein binding in Sprague-Dawley rat plasma; type: ADME, cell-free; settings: read-out: PPB (converted)
[2] = Oral bioavailability in Sprague-Dawley rat; type: ADME, organism-based; settings: in vivo
[3] = Plasma half life in iv dosed Sprague-Dawley rat; type: ADME, organism-based
[4] = molecular target: Human immunodeficiency virus type 1 integrase (Human immunodeficiency virus 1, UniProt Q7ZJM1); test: Inhibition of HIV integrase activity by HIV strand transfer assay
[5] = AUC in Sprague-Dawley rat at 2.3 mg/kg, po; type: ADME, organism-based; parameters: dose 2.3 mg/kg, route oral; settings: plasma
[6] = Plasma clearance in Sprague-Dawley rat; type: ADME, organism-based
[7] = test system: Human immunodeficiency virus 1; test: Antiviral activity against HIV1 3b in MT4 cells assessed as decrease in […] p24 core antigen in presence of normal human serum; type: functional; settings: for IC95: Human immunodeficiency virus 1, 3b, MT4, read-out: CIC95
[8] = test system: Human immunodeficiency virus 1; test: Antiviral activity against HIV13b in MT4 cells assessed as decrease in HIV1 p24 core antigen in presence of fetal bovine serum; type: functional, 3b; settings: for IC95: Human immunodeficiency virus 1, 3b, MT4, read-out: CIC95
[9] = Plasma half life in iv dosed Beagle dog; type: ADME, organism-based, Canis lupus familiaris
[10] = (§1) AUC in Sprague-Dawley rat at 3 mg/kg, po; type: ADME, organism-based, Plasma; parameters: dose 3 mg/kg, route oral; settings: Sprague-Dawley, plasma
[11] = Oral bioavailability in Beagle dog; type: ADME, organism-based, Canis lupus familiaris; settings: in vivo
[12] = Plasma clearance in Beagle dog; type: ADME, organism-based, Canis lupus familiaris
[13] = Protein binding in Beagle dog plasma; type: ADME, organism-based, Canis lupus familiaris; settings: read-out: PPB (converted)
[14] = AUC in Beagle dog at 1 mg/kg, po; type: ADME, organism-based, Canis lupus familiaris; parameters: dose 1 mg/kg, route oral; settings: plasma
[15] = AUC in Beagle dog at 0.8 mg/kg, po; type: ADME, organism-based, Canis lupus familiaris; parameters: dose 0.8 mg/kg, route oral; settings: plasma
[16] = AUC in rhesus monkey at 1 mg/kg, po; type: ADME, organism-based, Macaca mulatta; parameters: dose 1 mg/kg, route oral; settings: plasma
[17] = Distribution coefficient, log D of the compound; type: physicochemical; settings: octanol/water
[18] = AUC in Beagle dog at 1.5 mg/kg, po; type: ADME, organism-based, Canis lupus familiaris; parameters: dose 1.5 mg/kg, route oral; settings: plasma
[19] = AUC in Sprague-Dawley rat at 2.4 mg/kg, po; type: ADME, organism-based; parameters: dose 2.4 mg/kg, route oral; settings: plasma
Cytochrome P450 2D6 = Cytochrome P450 2D6 (Homo sapiens, UniProt P10635); test: Inhibition of human CYP2D6 at 100 uM; type: ADME
[20] = Oral bioavailability in Beagle dog at 10 mg/kg; type: ADME, organism-based, Canis lupus familiaris; settings: in vivo
Cytochrome P450 3A4 = Cytochrome P450 3A4 (Homo sapiens, UniProt P08684); test: Inhibition of human CYP3A4 at 100 uM; type: ADME
Cytochrome P450 2C19 = Cytochrome P450 2C19 (Homo sapiens, UniProt P33261); test: Inhibition of human CYP2C19 at 100 uM; type: ADME
[21] = Oral bioavailability in rhesus monkey at 1 mg/kg; type: ADME, organism-based, Macaca mulatta; settings: in vivo
[22] = AUC in Beagle dog at 10 mg/kg, po; type: ADME, organism-based, Canis lupus familiaris; parameters: dose 10 mg/kg, route oral; settings: plasma
[23] = Plasma half life in rhesus monkey at 1 mg/kg, po and 1 mg/kg, iv; type: ADME, organism-based, Macaca mulatta
[24] = Plasma half life in Beagle dog at 4 mg/kg, iv and 10 mg/kg, po; type: ADME, organism-based, Canis lupus familiaris
[25] = Plasma clearance in rhesus monkey at 1 mg/kg, po and 1 mg/kg, iv; type: ADME, organism-based, Macaca mulatta
[26] = Oral bioavailability in Sprague-Dawley rat at 3 mg/kg; type: ADME, organism-based; settings: in vivo
[27] = Plasma clearance in Sprague-Dawley rat at 3mg/kg, iv and 3mg/kg, po; type: ADME, organism-based
[28] = Solubility at pH 7.4; type: physicochemical; settings: buffer
[29] = Cmax in Beagle dog at 4 mg/kg, iv and 10 mg/kg, po; type: ADME, organism-based, Canis lupus familiaris; settings: in vivo
[30] = Plasma half life in Sprague-Dawley rat at 3 mg/kg, iv and 3 mg/kg, po; type: ADME, organism-based
[31] = Cmax in Sprague-Dawley rat at 3 mg/kg, iv and 3 mg/kg, po; type: ADME, organism-based; settings: in vivo
Cytochrome P450 1A2 = molecular target: T1, Cytochrome P450 1A2 (Homo sapiens, UniProt P05177); test: Inhibition of human CYP1A2 at 100 uM; type: ADME
T1 sequence (P05177 whole entry): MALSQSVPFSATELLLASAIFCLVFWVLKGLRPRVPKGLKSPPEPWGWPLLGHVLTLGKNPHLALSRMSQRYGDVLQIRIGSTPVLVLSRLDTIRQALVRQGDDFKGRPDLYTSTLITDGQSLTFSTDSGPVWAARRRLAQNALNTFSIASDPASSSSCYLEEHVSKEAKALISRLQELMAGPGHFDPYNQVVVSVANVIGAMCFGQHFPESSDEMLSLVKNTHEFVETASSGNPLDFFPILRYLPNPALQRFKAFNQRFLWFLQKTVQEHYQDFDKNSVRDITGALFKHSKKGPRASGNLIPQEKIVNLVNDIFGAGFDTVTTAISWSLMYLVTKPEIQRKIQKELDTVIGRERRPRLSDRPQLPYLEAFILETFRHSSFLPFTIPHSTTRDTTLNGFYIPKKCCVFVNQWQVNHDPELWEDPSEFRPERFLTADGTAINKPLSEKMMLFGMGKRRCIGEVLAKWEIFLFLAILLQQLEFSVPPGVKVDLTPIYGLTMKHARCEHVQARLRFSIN

[32] = Plasma clearance in Beagle dog at 4 mg/kg, iv and 10 mg/kg, po; type: ADME, organism-based, Canis lupus familiaris
Rattus norvegicus = test: as §1; type: ADME, organism-based, Plasma; parameters: dose 3 mg/kg, route oral; settings: in vivo
[33] = AUC in Beagle dog at 2 mg/kg, po; type: ADME, organism-based, Canis lupus familiaris; parameters: dose 2 mg/kg, route oral; settings: plasma

CN1C[C@H](O)C[C@H]1c1nc(C(=O)NCc2ccc(F)cc2)c(O)c(=O)n1C
fraction unbound (Homo sapiens): 0.28 | fraction unbound [1]: 0.22 | bioavailability [2]: 2% | half-life [3]: 1.8 h | IC50 [4]: 100 nM | AUC [5]: 0.1 µM·h | clearance [6]: 21 mL/min/kg | IC95 [7]: 630 nM | IC95 [8]: 630 nM

CN1CC(F)(F)C[C@H]1c1nc(C(=O)NCc2ccc(F)cc2)c(O)c(=O)n1C
fraction unbound (Homo sapiens): 0.12 | fraction unbound [1]: 0.06 | half-life [9]: 6 h | bioavailability [2]: 93% | half-life [3]: 0.6 h | AUC [10]: 11.8 µM·h | bioavailability [11]: 100% | clearance [12]: 5 mL/min/kg | IC50 [4]: 30 nM | clearance [6]: 11 mL/min/kg | IC95 [7]: 170 nM | fraction unbound [13]: 0.15 | IC95 [8]: 30 nM | AUC [14]: 9.9 µM·h

CN1CCSCC1c1nc(C(=O)NCc2ccc(F)cc2)c(O)c(=O)n1C (stereo not drawn)
fraction unbound (Homo sapiens): 0.17 | bioavailability [2]: 76% | half-life [3]: 0.5 h | AUC [10]: 9.7 µM·h | IC50 [4]: 70 nM | clearance [6]: 10 mL/min/kg | IC95 [7]: 130 nM | IC95 [8]: 50 nM

CN1CCOCC1c1nc(C(=O)NCc2ccc(F)cc2)c(O)c(=O)n1C (stereo not drawn)
AUC [15]: 11 µM·h | AUC [16]: 1.7 µM·h | fraction unbound [1]: 0.22 | half-life [9]: 10 h | bioavailability [2]: 92% | half-life [3]: 1.6 h | logD [17]: 0.59 | bioavailability [11]: 100% | AUC [18]: 22 µM·h | clearance [12]: 3 mL/min/kg | AUC [5]: 4.3 µM·h | clearance [6]: 22 mL/min/kg | CIC95 [7]: 0.1 µM | fraction unbound [13]: 0.53 | CIC95 [8]: 0.06 µM

CN1C[C@@H](F)C[C@H]1c1nc(C(=O)NCc2ccc(F)cc2)c(O)c(=O)n1C
fraction unbound [1]: 0.08 | bioavailability [2]: 94% | half-life [3]: 1.7 h | AUC [10]: 4.5 µM·h | IC50 [4]: 20 nM | clearance [6]: 21 mL/min/kg | IC95 [7]: 130 nM | IC95 [8]: 60 nM

CO[C@@H]1C[C@@H](c2nc(C(=O)NCc3ccc(F)cc3)c(O)c(=O)n2C)N(C)C1
fraction unbound (Homo sapiens): 0.25 | fraction unbound [1]: 0.11 | bioavailability [2]: 79% | half-life [3]: 1.5 h | AUC [10]: 5.2 µM·h | IC50 [4]: 180 nM | clearance [6]: 19 mL/min/kg | IC95 [7]: 170 nM | IC95 [8]: 150 nM

CN1C[C@H](OCc2ccccc2)C[C@H]1c1nc(C(=O)NCc2ccc(F)cc2)c(O)c(=O)n1C
fraction unbound (Homo sapiens): 0.05 | fraction unbound [1]: 0.07 | bioavailability [2]: 75% | half-life [3]: 2.3 h | AUC [19]: 2.3 µM·h | logD [17]: 2.2 | IC50 [4]: 130 nM | clearance [6]: 28 mL/min/kg | IC95 [7]: 310 nM | IC95 [8]: < 80 nM

CC(=O)N1CCN(C)C(c2nc(C(=O)NCc3ccc(F)cc3)c(O)c(=O)n2C)C1 (stereo not drawn)
fraction unbound (Homo sapiens): 0.3 | bioavailability [2]: 17% | half-life [3]: 0.9 h | logD [17]: 0.09 | AUC [10]: 0.8 µM·h | IC50 [4]: 32 nM | clearance [6]: 42 mL/min/kg | IC95 [7]: 300 nM | IC95 [8]: 230 nM

CN1C[C@H](F)C[C@H]1c1nc(C(=O)NCc2ccc(F)cc2)c(O)c(=O)n1C
fraction unbound [1]: 0.03 | bioavailability [2]: 100% | half-life [3]: 2 h | logD [17]: 0.66 | AUC [10]: 12.5 µM·h | IC50 [4]: 20 nM | clearance [6]: 12 mL/min/kg | IC95 [7]: 250 nM | IC95 [8]: 130 nM

CN1CCOCC1c1nc(C(=O)NCc2ccc(F)cc2)c(O)c(=O)n1C.Cl (single isomer, unassigned; (+))
Activity (Cytochrome P450 2D6): Not Active | bioavailability [20]: 69% | AUC [16]: 2.2 µM·h | Activity (Cytochrome P450 3A4): Not Active | Activity (Cytochrome P450 2C19): Not Active | bioavailability [21]: 73% | AUC [22]: 136 µM·h | Log D [17]: 0.47 | half-life [23]: 2 h | AUC [10]: 8 µM·h | half-life [24]: 7.2 h | clearance [25]: 14 mL/min/kg | bioavailability [26]: 56% | clearance [27]: 9 mL/min/kg | solubility [28]: 5800 µg/mL | Cmax [29]: 35 µM | half-life [30]: 1.1 h | Cmax [31]: 5.6 µM | CIC95 [7]: 65 µM | Activity (Cytochrome P450 1A2): Not Active | clearance [32]: 2.2 mL/min/kg | CIC95 [8]: 40 µM

CN1CCOCC1c1nc(C(=O)NCc2ccc(F)cc2)c(O)c(=O)n1C.Cl (single isomer, unassigned; (-))
half-life [9]: 1.9 h | bioavailability [2]: 84% | half-life [3]: 1 h | AUC (Rattus norvegicus): 6 µM·h | bioavailability [11]: 87% | clearance [12]: 2.6 mL/min/kg | AUC [33]: 29 µM·h | clearance [6]: 18 mL/min/kg | CIC95 [7]: 190 µM | CIC95 [8]: 90 µM
